Reference: patent publication US9765067B2, “Thiophen-2-yl-pyridin-2-yl-1H-pyrazole-4-carboxylic acid derivatives and the use thereof as soluble guanylate cyclase activators” (Novartis AG, priority 2014, dated 2017)

Target: T1, soluble guanylate cyclase (human GUCYA3/GUCYB3) overexpressed in CHO cells (Homo sapiens, UniProt Q02108+Q02153)
T1 construct: expressed in transfected cells
T1 sequence (Q02108 1-690 partner): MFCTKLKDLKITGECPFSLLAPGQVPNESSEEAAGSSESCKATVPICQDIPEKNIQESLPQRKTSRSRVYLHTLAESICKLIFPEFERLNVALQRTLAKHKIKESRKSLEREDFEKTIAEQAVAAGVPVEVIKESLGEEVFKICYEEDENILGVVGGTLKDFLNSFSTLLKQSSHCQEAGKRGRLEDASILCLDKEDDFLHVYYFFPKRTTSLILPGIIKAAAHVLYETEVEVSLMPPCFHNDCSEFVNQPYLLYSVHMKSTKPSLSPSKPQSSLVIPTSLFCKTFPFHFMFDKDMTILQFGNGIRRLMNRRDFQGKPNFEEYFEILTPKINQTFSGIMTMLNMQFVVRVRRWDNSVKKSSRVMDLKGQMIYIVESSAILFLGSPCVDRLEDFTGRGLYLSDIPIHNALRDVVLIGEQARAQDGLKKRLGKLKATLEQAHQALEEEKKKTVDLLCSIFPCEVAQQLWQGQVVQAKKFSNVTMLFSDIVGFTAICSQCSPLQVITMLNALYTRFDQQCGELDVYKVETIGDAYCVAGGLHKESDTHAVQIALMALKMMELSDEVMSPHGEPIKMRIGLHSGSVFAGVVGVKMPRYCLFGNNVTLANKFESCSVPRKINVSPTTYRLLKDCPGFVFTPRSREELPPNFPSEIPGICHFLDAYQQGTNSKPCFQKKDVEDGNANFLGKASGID
T1 sequence (Q02153 1-619): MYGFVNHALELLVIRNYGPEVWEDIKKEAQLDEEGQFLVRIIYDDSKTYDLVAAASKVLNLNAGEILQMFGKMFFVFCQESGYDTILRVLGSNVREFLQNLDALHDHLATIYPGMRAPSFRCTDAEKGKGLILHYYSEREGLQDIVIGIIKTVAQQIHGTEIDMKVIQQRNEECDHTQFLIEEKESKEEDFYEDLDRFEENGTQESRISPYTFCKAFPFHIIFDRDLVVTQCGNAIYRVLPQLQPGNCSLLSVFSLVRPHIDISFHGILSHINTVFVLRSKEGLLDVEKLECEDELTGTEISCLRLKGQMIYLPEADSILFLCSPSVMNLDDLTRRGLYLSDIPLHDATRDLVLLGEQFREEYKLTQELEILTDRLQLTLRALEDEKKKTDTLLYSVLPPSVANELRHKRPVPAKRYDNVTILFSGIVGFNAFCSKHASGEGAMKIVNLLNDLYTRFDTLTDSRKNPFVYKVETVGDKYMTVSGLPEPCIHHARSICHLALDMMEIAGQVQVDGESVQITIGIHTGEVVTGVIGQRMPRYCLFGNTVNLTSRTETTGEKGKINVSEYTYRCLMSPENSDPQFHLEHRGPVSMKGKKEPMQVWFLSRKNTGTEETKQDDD
Test: CHO cellular assay (cGMP production, HTRF)
Format: cell-based
Conditions: CHO K1 clone 8E10 overexpressing human sGC, Cisbio HTRF, 1 h room temperature, 1 mM IBMX, 20 uM ODQ, minimum quantification limit 0.5 nM
Source text: Chinese hamster ovary (CHO) cells overexpressing soluble guanylate cyclase were generated to test the effect of sGC activators in a cellular context. Human cDNAs for GUCYA3 (RefSeq: NM_000856.3) and GUCYB3 (RefSeq: NM_000857.1) were amplified by PCR from a HUVEC (Human Umbilical Vein Endothelial Cells) cDNA library and cloned into mammalian expression vectors. CHO K1 cells (ATCC CCL-61) were transfected using Lipofectamine 2000 following manufacturer's instructions and stably expressing clones were identified by antibiotic selection. CHO GUCY clone 8E10 was used for subsequent experiments.
Cells were seeded at a density of 3000 cells/well in white 384-well proxyplates (Perkin Elmer) and incubated overnight, then the medium was removed and cells were washed with assay buffer (HBSS, 0.1% BSA, 1 mM IBMX, 20 uM ODQ). sGC activators were serially diluted in DMSO, then diluted in assay buffer prior to adding to cells (10 ul/well, final DMSO concentration 0.5%). Cells were incubated with compounds for 1 h room temperature, then assayed for cGMP production using Cisbio cGMP HTRF kit (62GM2PEC) according to manufacturer's instructions.
The EC50s are calculated based on the amount of cGMP interpolated from the standard curve, using a 4-parameter sigmoidal dose-response.

EC50 [nM]	SMILES
48	Cc1cc(C2CCN(C(=O)C3COC(C)(C)O3)CC2)ccc1OCc1ccsc1-c1cccc(-n2ncc(C(=O)O)c2C(F)(F)F)n1 (racemic) [Example 12-6, (±)-1-(6-(3-((4-(1-(2,2-Dimethyl-1,3-dioxolane-4-carbonyl)piperidin-4-yl)-2-methylphenoxy)methyl)thiophen-2-yl)pyridin-2-yl)-5-(trifluoromethyl)-1H-pyrazole-4-carboxylic acid]
≤ 0.5	Cc1cc(COc2ccc(C3CCN(C(=O)C4CC4)CC3)cc2C)c(-c2cccc(-n3ncc(C(=O)O)c3C)n2)s1 [Example 10-3, 1-(6-(3-((4-(1-(Cyclopropanecarbonyl)piperidin-4-yl)-2-methylphenoxy)methyl)-5-methylthiophen-2-yl)pyridin-2-yl)-5-methyl-1H-pyrazole-4-carboxylic acid]
2.8	O=C(O)c1cnn(-c2cccc(-c3sccc3COc3ccc(C4CCN(C(=O)C5CC5)CC4)cc3)n2)c1C(F)(F)F [Example 2-3, 1-(6-(3-((4-(1-(Cyclopropanecarbonyl)piperidin-4-yl)phenoxy)methyl)thiophen-2-yl)pyridin-2-yl)-5-(trifluoromethyl)-1H-pyrazole-4-carboxylic acid]
≤ 0.5	CCC(=O)N1CCC(c2ccc(OCc3c(C(F)(F)F)csc3-c3cccc(-n4ncc(C(=O)O)c4C(F)(F)F)n3)c(C)c2)CC1 [Example 2-4, 1-(6-(3-((2-Methyl-4-(1-propionylpiperidin-4-yl)phenoxy)methyl)-4-(trifluoromethyl)thiophen-2-yl)pyridin-2-yl)-5-(trifluoromethyl)-1H-pyrazole-4-carboxylic acid]
≤ 0.5	CCc1cc(OCc2cc(C)sc2-c2cccc(-n3ncc(C(=O)O)c3C(F)(F)F)n2)ccc1C1CCN(C(=O)C2CC2)CC1 [Example 6-11, 1-(6-(3-((4-(1-(Cyclopropanecarbonyl)piperidin-4-yl)-3-ethylphenoxy)methyl)-5-methylthiophen-2-yl)pyridin-2-yl)-5-(trifluoromethyl)-1H-pyrazole-4-carboxylic acid]
15	Cc1cc(C2CCN(C(=O)C3CC3)CC2)ccc1NC(C)c1ccsc1-c1cccc(-n2ncc(C(=O)O)c2C(F)(F)F)c1 (stereo not drawn) [Example 36, 1-(3-(3-(1-((4-(1-(Cyclopropanecarbonyl)piperidin-4-yl)-2-methylphenyl)amino)ethyl)thiophen-2-yl)phenyl)-5-(trifluoromethyl)-1H-pyrazole-4-carboxylic acid]
18	CCc1csc(-c2cccc(-n3ncc(C(=O)O)c3C(F)(F)F)n2)c1COc1ccc(C2CCN(CC(F)(F)F)CC2)cc1C [Example 18-6, 1-(6-(4-Ethyl-3-((2-methyl-4-(1-(2,2,2-trifluoroethyl)piperidin-4-yl)phenoxy)methyl)thiophen-2-yl)pyridin-2-yl)-5-(trifluoromethyl)-1H-pyrazole-4-carboxylic acid]
61	Cc1cc(COc2ccc(C3CCN(C(=O)C4CC4)CC3)c(CO)c2)c(-c2cccc(-n3ncc(C(=O)O)c3C(F)(F)F)n2)s1 [Example 30, 1-(6-(3-((4-(1-(Cyclopropanecarbonyl)piperidin-4-yl)-3-(hydroxymethyl)phenoxy)methyl)-5-methylthiophen-2-yl)pyridin-2-yl)-5-(trifluoromethyl)-1H-pyrazole-4-carboxylic acid]
3.5	Cc1cc(C2CCN(CC(F)(F)F)CC2)ccc1OCc1c(-c2cccc(-n3ncc(C(=O)O)c3C(F)(F)F)n2)sc(C)c1C [Example 18-5, 1-(6-(4,5-Dimethyl-3-((2-methyl-4-(1-(2,2,2-trifluoroethyl)piperidin-4-yl)phenoxy)methyl)thiophen-2-yl)pyridin-2-yl)-5-(trifluoromethyl)-1H-pyrazole-4-carboxylic acid]
1.4	Cc1cc(C2CCN(C(=O)C3CC3)CC2)ccc1OCc1cc(C2CC2)sc1-c1cccc(-n2ncc(C(=O)O)c2C(F)(F)F)n1 [Example 6-7, 1-(6-(3-((4-(1-(Cyclopropanecarbonyl)piperidin-4-yl)-2-methylphenoxy)methyl)-5-cyclopropylthiophen-2-yl)pyridin-2-yl)-5-(trifluoromethyl)-1H-pyrazole-4-carboxylic acid]
13	CCC(=O)N1CCC(c2ccc(COc3ccsc3-c3cccc(-n4ncc(C(=O)O)c4C(F)(F)F)n3)cc2)CC1 [Example 31, 1-(6-(3-((4-(1-Propionylpiperidin-4-yl)benzyl)oxy)thiophen-2-yl)pyridin-2-yl)-5-(trifluoromethyl)-1H-pyrazole-4-carboxylic acid]
8.8	Cc1cc(C2CCN(C(=O)C3CC3)CC2)ccc1NCc1ccsc1-c1cccc(-n2ncc(C(=O)O)c2C(F)(F)F)n1 [Example 16-1, 1-(6-(3-(((4-(1-(Cyclopropanecarbonyl)piperidin-4-yl)-2-methylphenyl)amino)methyl)thiophen-2-yl)pyridin-2-yl)-5-(trifluoromethyl)-1H-pyrazole-4-carboxylic acid]
3	CCC(=O)N1CCC(c2ccc(OCc3cc(C)sc3-c3cccc(-n4ncc(C(=O)O)c4C(F)(F)F)n3)cc2)CC1 [Example 4-2, 1-(6-(5-Methyl-3-((4-(1-propionylpiperidin-4-yl)phenoxy)methyl)thiophen-2-yl)pyridin-2-yl)-5-(trifluoromethyl)-1H-pyrazole-4-carboxylic acid]
6.9	Cc1cc(C2CCN(C(=O)C3CCOC3)CC2)ccc1OCc1ccsc1-c1cccc(-n2ncc(C(=O)O)c2C(F)(F)F)n1 (racemic) [Example 12-3, (±)-1-(6-(3-((2-Methyl-4-(1-(tetrahydrofuran-3-carbonyl)piperidin-4-yl)phenoxy)methyl)thiophen-2-yl)pyridin-2-yl)-5-(trifluoromethyl)-1H-pyrazole-4-carboxylic acid]
≤ 0.5	CCc1c(C(=O)O)cnn1-c1cccc(-c2sc(C)c(C)c2CNc2ccc(C3CCN(C(=O)C4CC4)CC3)cc2C)n1 [Example 20-2, 1-(6-(3-(((4-(1-(Cyclopropanecarbonyl)piperidin-4-yl)-2-methylphenyl)amino)methyl)-4,5-dimethylthiophen-2-yl)pyridin-2-yl)-5-ethyl-1H-pyrazole-4-carboxylic acid]
67	Cc1cc(C2CCN(C3COC3)CC2)ccc1OCc1ccsc1-c1cccc(-n2ncc(C(=O)O)c2C(F)(F)F)n1 [Example 29, 1-(6-(3-((2-Methyl-4-(1-(oxetan-3-yl)piperidin-4-yl)phenoxy)methyl)thiophen-2-yl)pyridin-2-yl)-5-(trifluoromethyl)-1H-pyrazole-4-carboxylic acid]
≤ 0.5	CCc1c(C(=O)O)cnn1-c1cccc(-c2sc(C)c(C)c2COc2ccc(C3CCN(C(=O)C4CC4)CC3)cc2C)n1 [Example 10-6, 1-(6-(3-((4-(1-(Cyclopropanecarbonyl)piperidin-4-yl)-2-methylphenoxy)methyl)-4,5-dimethylthiophen-2-yl)pyridin-2-yl)-5-ethyl-1H-pyrazole-4-carboxylic acid]
428	CCCc1cc(COc2ccc(C3CCN(CC(F)(F)F)CC3)cc2C)c(-c2cccc(-n3ncc(C(=O)O)c3C(F)(F)F)n2)s1 [Example 41, 1-(6-(3-((2-Methyl-4-(1-(2,2,2-trifluoroethyl)piperidin-4-yl)phenoxy)methyl)-5-propylthiophen-2-yl)pyridin-2-yl)-5-(trifluoromethyl)-1H-pyrazole-4-carboxylic acid]
